# Laboratory results as given in patent US10093929B2, “Modular RNA regulators and methods” (STC.UNM, priority 2013, dated 2018).
# Key:
# RNase III = settings: cited from earlier work
# FKBP12 = FKBP12 (Homo sapiens, UniProt P62942); settings: cited from earlier work
# [1] = test system: FKBP12-fusion proteins (GAL4DBD-FKBP, VPAD-FKBP); assay: FK1012-inducible luciferase transcription assay in CHO cells; format: cell-based; settings: 200 nM, 10 hours
# Protocol: Previously, syntheses of FK1012 variants either involve multi-step transformations with 18% overall yields, or a single-step cross metathesis with 50% yield with a 22-hour reaction time. […] Using dithiothreitol (DTT) as the linker, two equivalents of tacrolimus and one equivalent of DTT were coupled under the TEC reaction condition to produce FK1012-DT (Compound 15, FIG. 12) in one step within 15 minutes in quantitative yield (FIG. 12, Scheme (a)). […] For the assay, two DNA constructs were prepared, each one encoding an FKBP12-fusion protein. […]
# Cells in 24-well plates were lysed with 100 μL of 1× Passive Lysis Buffer (Promega Corporation, Madison, Wis.) at room temperature for 10 minutes on a shaker. […] 90 μL of Luciferase substrate solution (5 mg of D-luciferin and 7 mg of coenzyme A in 33mL of Luciferase reading buffer, which includes 20 mM tricine, 1.07 mM (MgCO3)4Mg(OH)2.5H2O, 2.67 mM MgSO4, 0.1 mM EDTA, 33.3 mM dithiothreitol and 0.53 mM ATP in water) was added into each well with cell lysates. The signal was read with a 3 s delay and 1 s integration with GLOMAX multi-detection system (Promega Corp., Madison, Wis.). Obtained data were analyzed by KALEIDAGRAPH (Synergy Software, Reading, Pa.).
# FKBP12, sequence (P62942 whole entry, species assumed, the tested form may be a part): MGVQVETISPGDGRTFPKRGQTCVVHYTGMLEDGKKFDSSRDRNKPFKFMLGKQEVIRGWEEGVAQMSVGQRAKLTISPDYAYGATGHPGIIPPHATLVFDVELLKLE
smiles,measurement,setting,value
O=C1c2ccccc2C(=O)N1O [N-hydroxyphthalimide],affinity as RNase III inhibitor,RNase III,low affinity
"CCC(C)(C)C(=O)C(=O)N1CCCC[C@H]1C(=O)O[C@H](CCc1ccc(OC)c(OC)c1)c1cccc(N)c1 [SLF, (1R)-1-(3-aminophenyl)-3-(3,4-dimethoxyphenyl)propyl ester-1-(3,3-dimethyl-1,2-dioxopentyl)-2S-piperidinecarboxylic acid]",decrease of affinity for FKBP12 compared to tacrolimus,FKBP12,10 fold
"C=CC[C@@H]1/C=C(\C)C[C@H](C)C[C@H](OC)[C@H]2O[C@@](O)(C(=O)C(=O)N3CCCC[C@H]3C(=O)O[C@H](/C(C)=C/[C@@H]3CC[C@@H](O)[C@H](OC)C3)[C@H](C)[C@@H](O)CC1=O)[C@H](C)C[C@@H]2OC [tacrolimus, Tacrolimus]",induction of luciferase (compared to the no drug control),[1],not observed
